Data reported in patent US5356921A, “Imidazolylphenol compounds, pharmaceutical compositions containing them, and processes for preparing such compounds and compositions” (Gruenenthal GmbH, priority 1992, dated 1994).

Columns and labels:
Format in all cases: cell-based
[1] = test system: 12-lipoxygenase; assay: Inhibition of 12-HETE- and 5S,12S-DiHETE-synthesis induced by FMLP/merthiolate of human polymorphonuclear leukocytes and thrombocytes; conditions: coincubated human granulocytes and thrombocytes
Method: (§1) Human granulocytes were isolated by dextran-sedimentation and a Percoll gradient method and suspended in HBSS (Hanks buffered salt solution) at1×10^7 cells/mi. The cells were incubated in presence of a compound according to the invention or a solvent (ethanol and/or dimethyl sulfoxide) at 37° C. for 2 minutes, then with merthiolate (sodium ethylmercurithiosalicylate; 40 μM) for 2 minutes, and thereafter with FMLP (formyl-methionyl-leucylphenylalanine; 10^-7 M) for 15 minutes. After solid phase extraction the metabolites of arachidonic acid 5-HETE, LTB4, 6-trans-LTB4 -isomers, 20-OH-LTB4 and 20-COOH-LTB4 were identified by RP-HPLC [M. Haurand and L. Flohe in Biochem. Pharmacol. 38, 2129-37 (1989)].
Coincubations of human granulocytes and thrombocytes were carried out and investigated according to the inhibition of leukotriene-synthesis induced by FMLP/merthiolate. 12-HETE and 5S,12S-dihydroxy-HETE (5S,12S-DiHETE) were additionally included in the evaluation.

[2] = test system: Leukotriene-Synthesis Induced by FMLP/Merthiolate of Human Polymorphonuclear Leukocytes; assay: Inhibition of leukotriene-synthesis induced by FMLP/merthiolate of human polymorphonuclear leukocytes (reversibility); conditions: Leukocyte, human granulocytes, preincubated 5 minutes, centrifuged, resuspended, read-out: IC50-value of the reversible inhibitory action
Method: as §1
To examine the reversibility of the inhibitory action the cells were incubated with a compound according the invention or a solvent (ethanol and/or dimethyl sulfoxide) at 37° C. for 5 minutes, centrifuged at 300×g for 5 minutes and resuspended in 2 ml HBSS. Then the cells were incubated with merthiolate (40 μM) at 37° C. for 2 minutes and thereafter with FMLP (10^-7 M) for 15 minutes. The IC50 -value of the reversible inhibitory action was 2μmolar when the compound prepared according to Example 1 was used.

[3] = target: T1, thromboxane synthase (Homo sapiens, UniProt P24557); assay: Inhibition of thromboxane synthase (human thrombocytes); conditions: for IC50: human thrombocytes, arachidonic acid 3.5 μM, read-out: IC50-Value, inhibition of thromboxane synthase (TXB2 formation); for inhibitory action on thromboxane synthase: in words
T1 construct: human thrombocytes were isolated from platelet-rich plasma; endogenous in cells; host or cells: human thrombocytes (platelets), intact
T1 sequence (P24557 1-533): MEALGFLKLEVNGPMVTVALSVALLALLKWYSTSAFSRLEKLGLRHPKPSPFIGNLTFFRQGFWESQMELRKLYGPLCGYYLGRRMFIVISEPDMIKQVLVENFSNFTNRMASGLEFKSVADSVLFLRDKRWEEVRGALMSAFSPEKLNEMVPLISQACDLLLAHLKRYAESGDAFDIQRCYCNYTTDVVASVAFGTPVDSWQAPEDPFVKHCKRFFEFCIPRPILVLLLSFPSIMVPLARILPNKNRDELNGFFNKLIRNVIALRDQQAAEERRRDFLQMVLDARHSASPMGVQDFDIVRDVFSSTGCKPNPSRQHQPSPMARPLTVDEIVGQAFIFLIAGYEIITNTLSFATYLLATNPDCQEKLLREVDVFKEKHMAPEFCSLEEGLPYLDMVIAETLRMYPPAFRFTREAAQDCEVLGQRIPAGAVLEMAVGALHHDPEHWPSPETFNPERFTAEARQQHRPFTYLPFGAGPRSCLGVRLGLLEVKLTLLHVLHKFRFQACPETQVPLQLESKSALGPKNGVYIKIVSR
Method: After addition of prostacyclin, human thrombocytes were isolated from platelet-rich plasma and suspended in Tyrode-Hepes buffer of pH 7.4 at 2×10^8 cells/ml. One ml aliquots of cells were incubated either with a compound according to the invention (0.1 to 100 μM) or a solvent (ethanol and/or dimethyl sulfoxide) at 37° C. for 3 minutes and thereafter with radioactively labelled arachidonic acid (3.5 μM) for 5 minutes. The reaction was stopped and the metabolites of arachidonic acid were extracted by adding methanol, chloroform and formic acid. After evaporation of the chloroform-containing layer to dryness under nitrogen, the residue obtained was resuspended in 50 μl chloroform and analyzed by thin layer chromatography. The distribution of the radioactivity of the different metabolites of arachidonic acid was measured using a TLC linear analyzer.

IC50 [2] [µM]	IC50 [3] [µM]	Structure (SMILES)	inhibitory action on 12-lipoxygenase [1]	inhibitory action on thromboxane synthase [3]
2	2.8	NC(=O)N(O)Cc1ccc(Oc2ccc(-n3ccnc3)cc2)cc1 [Example 1, N-hydroxy-N-[4-[4-(1H-imidazol-1-yl)phenoxy]phenylmethyl]urea]	did not exert an inhibitory action on 12-lipoxygenase	same inhibitory potency as the hydrochloride of the imidazolylethoxybenzoic acid UK 37 248
	2.9	CC(=O)N(O)Cc1ccc(Oc2ccc(-n3ccnc3)cc2)cc1 [Example 3, N-hydroxy-N-[4-[4-(1H-imidazol-1-yl)phenoxy]phenylmethyl]acetamide]		same inhibitory potency as the hydrochloride of the imidazolylethoxybenzoic acid UK 37 248
